What was measured:
[1] = target: human Gal-1 (hGal-1); test: Competitive binding assay: biotinylated hGal-1 binding to microplate-adsorbed asialofetuin (ASF); conditions: Activity on hGal-1; binding of biotinylated hGal-1 to ASF-coated plates; mean values
Procedure: (§1) Evaluation of Compound Inhibitory Activity (IC50)
The inhibitory activity of compounds is determined in competitive binding assays. This spectrophotometric assay measures the binding of biotinylated human Gal-3 (hGal-3) or human Gal-1 (hGAl-1), respectively, to a microplate-adsorbed glycoprotein, asialofetuin (ASF) (Proc Natl Acad Sci USA. 2013 Mar. 26; 110(13):5052-7.). Alternatively, and preferably, a human Gal-1 version in which all six cysteines are substituted by serines may be used.
Briefly, compounds are serially diluted in DMSO (working dilutions). ASF-coated 384 well pates are supplemented with 22.8 μL/well of biotinylated hGal-3 or hGal-1 in assay buffer (i.e. 300-1000 ng/mL biotinylated hGal-3 or hGal-1) to which 1.2 μL of compound working dilutions are added and mixed.
(§2) Plates are incubated for 3 hours at 4° C. then washed with cold assay buffer (3×50 uL), incubated for 1 hour with 25 μL/well of a streptavidin-peroxidases solution (diluted in assay buffer to 80 ng/mL) at 4° C., followed by further washing steps with assay buffer (3×50 uL). Finally, 25 μL/well of ABTS substrate is added. OD (410 nm) is recorded after 30 to 45 min and IC50 values are calculated.
(§3) The calculated IC50 values may fluctuate depending on the daily assay performance. Fluctuations of this kind are known to those skilled in the art. IC50 values from several measurements are given as mean values.

[2] = target: human Gal-3 (hGal-3) (Homo sapiens (Human), UniProt P17931); test: Competitive binding assay: biotinylated hGal-3 binding to microplate-adsorbed asialofetuin (ASF); conditions: Activity on hGal-3; binding of biotinylated hGal-3 to ASF-coated plates; mean values
Procedure: as §1
The inhibitory activity of compounds is determined in competitive binding assays. […] Alternatively, and preferably, a human Gal-1 version in which all six cysteines are substituted by serines may be used.
Briefly, compounds are serially diluted in DMSO (working dilutions).
as §2, with “added.” for “added. OD (410 nm) is recorded after 30 to 45 min and IC50 values are calculated.”
as §3

Chain of human Gal-1 (hGal-1) (P09382 2-135 limits assumed): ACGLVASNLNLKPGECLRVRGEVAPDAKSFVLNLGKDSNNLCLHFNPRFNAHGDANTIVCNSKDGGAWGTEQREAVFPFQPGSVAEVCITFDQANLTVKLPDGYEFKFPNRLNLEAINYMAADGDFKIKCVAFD
Chain of human Gal-3 (hGal-3) (P17931 whole entry): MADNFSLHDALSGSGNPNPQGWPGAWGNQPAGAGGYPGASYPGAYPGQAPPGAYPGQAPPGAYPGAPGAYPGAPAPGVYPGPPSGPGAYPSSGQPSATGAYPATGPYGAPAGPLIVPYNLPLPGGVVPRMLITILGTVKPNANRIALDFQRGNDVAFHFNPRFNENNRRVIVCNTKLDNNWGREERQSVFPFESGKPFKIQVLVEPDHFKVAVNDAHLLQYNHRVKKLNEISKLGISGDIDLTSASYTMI

Structure (SMILES)	IC50 [1]	IC50 [2]
CO[C@@H]1[C@@H](n2cc(-c3cc(F)c(F)c(F)c3)nn2)[C@@H](O)[C@@H](CO)O[C@H]1C(=O)N(Cc1ccnn1CC1CC1)[C@H]1CCCC[C@@H]1O [Example 46, (2R,3R,4S,5R,6R)-N-((1-(cyclopropylmethyl)-1H-pyrazol-5-yl)methyl)-5-hydroxy-N-((1S,2S)-2-hydroxycyclohexyl)-6-(hydroxymethyl)-3-methoxy-4-(4-(3,4,5-trifluorophenyl)-1H-1,2,3-triazol-1-yl)tetrahydro-2H-pyran-2-carboxamide]	497 nM	160 nM
CO[C@@H]1[C@@H](n2cc(-c3cc(F)c(F)c(F)c3)nn2)[C@@H](O)[C@@H](CO)O[C@H]1C(=O)N(c1cccc(Cl)c1)[C@H]1CCCCC[C@@H]1O [Example 207, (2R,3R,4S,5R,6R)-N-(3-chlorophenyl)-5-hydroxy-N-((1S,2S)-2-hydroxycycloheptyl)-6-(hydroxymethyl)-3-methoxy-4-(4-(3,4,5-trifluorophenyl)-1H-1,2,3-triazol-1-yl)tetrahydro-2H-pyran-2-carboxamide]	1790 nM	49 nM
CO[C@@H]1[C@@H](n2cc(-c3cc(F)cc(Br)c3)nn2)[C@@H](O)[C@@H](CO)O[C@H]1C(=O)N(c1cccc(C#N)c1)[C@H]1CCCC[C@@H]1O [Example 148, (2R,3R,4S,5R,6R)-4-(4-(3-bromo-5-fluorophenyl)-1H-1,2,3-triazol-1-yl)-N-(3-cyanophenyl)-5-hydroxy-N-((1S,2S)-2-hydroxycyclohexyl)-6-(hydroxymethyl)-3-methoxytetrahydro-2H-pyran-2-carboxamide]	343 nM	81 nM
CO[C@@H]1[C@@H](n2cc(-c3cc(F)c(Cl)c(Cl)c3)nn2)[C@@H](O)[C@@H](CO)O[C@H]1C(=O)N(c1ccc2ncsc2c1)[C@H]1CCCC[C@@H]1O [Example 168, (2R,3R,4S,5R,6R)-N-(benzo[d]thiazol-6-yl)-4-(4-(3,4-dichloro-5-fluorophenyl)-1H-1,2,3-triazol-1-yl)-5-hydroxy-N-((1S,2S)-2-hydroxycyclohexyl)-6-(hydroxymethyl)-3-methoxytetrahydro-2H-pyran-2-carboxamide]	672 nM	25 nM
O=C([C@@H]1O[C@H](CO)[C@H](O)[C@H](n2cc(-c3cc(F)c(F)c(F)c3)nn2)[C@H]1O)N(Cc1cnccc1C(F)(F)F)[C@H]1CCCC[C@@H]1O [Example 10, (2R,3R,4S,5R,6R)-3,5-dihydroxy-N-((1S,2S)-2-hydroxycyclohexyl)-6-(hydroxymethyl)-N-((4-(trifluoromethyl)pyridin-3-yl)methyl)-4-(4-(3,4,5-trifluorophenyl)-1H-1,2,3-triazol-1-yl)tetrahydro-2H-pyran-2-carboxamide]	1690 nM	122 nM
COc1cnc2ccc(F)c(CN(C(=O)[C@@H]3O[C@H](CO)[C@H](O)[C@H](n4cc(-c5cc(F)c(F)c(F)c5)nn4)[C@H]3OC)[C@H]3CCCC[C@@H]3O)c2n1 [Example 64, (2R,3R,4S,5R,6R)-N-((6-fluoro-3-methoxyquinoxalin-5-yl)methyl)-5-hydroxy-N-((1S,2S)-2-hydroxycyclohexyl)-6-(hydroxymethyl)-3-methoxy-4-(4-(3,4,5-trifluorophenyl)-1H-1,2,3-triazol-1-yl)tetrahydro-2H-pyran-2-carboxamide]	980 nM	123 nM
CO[C@@H]1[C@@H](n2cc(-c3cc(F)c(Br)c(F)c3)nn2)[C@@H](O)[C@@H](CO)O[C@H]1C(=O)N(c1cc(F)cc(C#N)c1)[C@H]1CCCC[C@@H]1O [Example 155, (2R,3R,4S,5R,6R)-4-(4-(4-bromo-3,5-difluorophenyl)-1H-1,2,3-triazol-1-yl)-N-(3-cyano-5-fluorophenyl)-5-hydroxy-N-((1S,2S)-2-hydroxycyclohexyl)-6-(hydroxymethyl)-3-methoxytetrahydro-2H-pyran-2-carboxamide]	1510 nM	24 nM
COc1cccc(N(C(=O)[C@@H]2O[C@H](CO)[C@H](O)[C@H](n3cc(-c4cc(F)cc(F)c4)nn3)[C@H]2OC)[C@H]2CCCC[C@@H]2O)c1 [Example 79]	2110 nM	62 nM

Other lines, results leading:

IC50 [1]	IC50 [2]	Structure (SMILES)
7250 nM	255 nM	O=C([C@@H]1O[C@H](CO)[C@H](O)[C@H](n2cc(-c3cc(F)c(F)c(F)c3)nn2)[C@H]1O)N(Cc1ncccc1C(F)(F)F)[C@H]1CCCC[C@@H]1O [Example 13, (2R,3R,4S,5R,6R)-3,5-dihydroxy-N-((1S,2S)-2-hydroxycyclohexyl)-6-(hydroxymethyl)-N-((3-(trifluoromethyl)pyridin-2-yl)methyl)-4-(4-(3,4,5-trifluorophenyl)-1H-1,2,3-triazol-1-yl)tetrahydro-2H-pyran-2-carboxamide]
173 nM	7 nM	[2H]C([2H])([2H])O[C@@H]1[C@@H](n2cc(-c3cc(F)c(F)c(F)c3)nn2)[C@@H](O)[C@@H](CO)O[C@H]1C(=O)N(c1cc(Cl)cc(Cl)c1)[C@H]1CCCC[C@@H]1O [Example 87, (2R,3R,4S,5R,6R)-N-(3,5-dichlorophenyl)-5-hydroxy-N-((1S,2S)-2-hydroxycyclohexyl)-6-(hydroxymethyl)-3-(methoxy-d3)-4-(4-(3,4,5-trifluorophenyl)-1H-1,2,3-triazol-1-yl)tetrahydro-2H-pyran-2-carboxamide]
143 nM	56 nM	CO[C@@H]1[C@@H](n2cc(-c3cc(F)c(F)c(F)c3)nn2)[C@@H](O)[C@@H](CO)O[C@H]1C(=O)N(c1cc2sc(C)nc2cc1C)[C@H]1CCCC[C@@H]1O [Example 106, (2R,3R,4S,5R,6R)-N-(2,5-dimethylbenzo[d]thiazol-6-yl)-5-hydroxy-N-((1S,2S)-2-hydroxycyclohexyl)-6-(hydroxymethyl)-3-methoxy-4-(4-(3,4,5-trifluorophenyl)-1H-1,2,3-triazol-1-yl)tetrahydro-2H-pyran-2-carboxamide]
1480 nM	311 nM	CO[C@@H]1[C@@H](n2cc(-c3cc(F)c(F)c(F)c3)nn2)[C@@H](O)[C@@H](CO)O[C@H]1C(=O)N(Cc1sncc1Cl)[C@H]1CCCC[C@@H]1O [Example 31, (2R,3R,4S,5R,6R)-N-((4-chloroisothiazol-5-yl)methyl)-5-hydroxy-N-((1S,2S)-2-hydroxycyclohexyl)-6-(hydroxymethyl)-3-methoxy-4-(4-(3,4,5-trifluorophenyl)-1H-1,2,3-triazol-1-yl)tetrahydro-2H-pyran-2-carboxamide]
586 nM	62 nM	CO[C@@H]1[C@@H](n2cc(-c3cc(F)c(F)c(F)c3)nn2)[C@@H](O)[C@@H](CO)O[C@H]1C(=O)N(c1cc(Cl)cc(Cl)c1)[C@H]1CCCCC[C@@H]1O [Example 208, (2R,3R,4S,5R,6R)-N-(3,5-dichlorophenyl)-5-hydroxy-N-((1S,2S)-2-hydroxycycloheptyl)-6-(hydroxymethyl)-3-methoxy-4-(4-(3,4,5-trifluorophenyl)-1H-1,2,3-triazol-1-yl)tetrahydro-2H-pyran-2-carboxamide]
1670 nM	77 nM	CO[C@@H]1[C@@H](n2cc(-c3cc(F)cc(Cl)c3)nn2)[C@@H](O)[C@@H](CO)O[C@H]1C(=O)N(c1cccc(C#N)c1)[C@H]1CCCC[C@@H]1O [Example 142, (2R,3R,4S,5R,6R)-4-(4-(3-chloro-5-fluorophenyl)-1H-1,2,3-triazol-1-yl)-N-(3-cyanophenyl)-5-hydroxy-N-((1S,2S)-2-hydroxycyclohexyl)-6-(hydroxymethyl)-3-methoxytetrahydro-2H-pyran-2-carboxamide]
497 nM	55 nM	CO[C@@H]1[C@@H](n2cc(-c3cc(F)c(F)c(F)c3)nn2)[C@@H](O)[C@@H](CO)O[C@H]1C(=O)N(Cc1ccccc1C(F)(F)F)[C@H]1CCCC[C@@H]1O [Example 11, (2R,3R,4S,5R,6R)-5-hydroxy-N-((1S,2S)-2-hydroxycyclohexyl)-6-(hydroxymethyl)-3-methoxy-N-(2-(trifluoromethyl)benzyl)-4-(4-(3,4,5-trifluorophenyl)-1H-1,2,3-triazol-1-yl)tetrahydro-2H-pyran-2-carboxamide]
136 nM	14 nM	CO[C@@H]1[C@@H](n2cc(-c3cc(F)c(F)c(F)c3)nn2)[C@@H](O)[C@@H](CO)O[C@H]1C(=O)N(c1cc(Cl)ccc1F)[C@H]1CCCC[C@@H]1O [Example 105, (2R,3R,4S,5R,6R)-N-(5-chloro-2-fluorophenyl)-5-hydroxy-N-((1S,2S)-2-hydroxycyclohexyl)-6-(hydroxymethyl)-3-methoxy-4-(4-(3,4,5-trifluorophenyl)-1H-1,2,3-triazol-1-yl)tetrahydro-2H-pyran-2-carboxamide]
